Data as given in US6525001B1, “Substituted pyrimidine and pyridine herbicides” (Mid-American Commercialization Corporation, priority 1997, dated 2003).

Tests used:
Assay type in all cases: in vivo
[1] = system: velvetleaf (Abutilon theophrasti); experiment: Test B pre-/postemergence; parameters: key: 0 is no effect; 10 is complete control
How it was run: (§1)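 Seeds were planted and sprayed preemergence, while plants at 2 to 18 cm (1- to 4-leaf stage) were sprayed postemergence at the same time, with test chemical in a non-phytotoxic solvent mixture containing surfactant. After twelve to sixteen days in a greenhouse, injury was rated visually against untreated controls on a 0–10 scale.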

wild oat (Avena fatua) = experiment: Test B pre-/postemergence; parameters: key: 0 is no effect; 10 is complete control
How it was run: as §1

rape (Brassica napus) = experiment: Test B pre-/postemergence; parameters: key: 0 is no effect; 10 is complete control
How it was run: as §1

[2] = system: giant foxtail (Setaria faberii); experiment: Test B pre-/postemergence; parameters: key: 0 is no effect; 10 is complete control
How it was run: as §1

[3] = system: momingglory (Ipomoea hederacea); experiment: Test B pre-/postemergence; parameters: key: 0 is no effect; 10 is complete control
How it was run: as §1

[4] = system: broadleaf signalgrass (Brachiaria decumbens); experiment: Test B pre-/postemergence; parameters: key: 0 is no effect; 10 is complete control; conditions: for B. signalgrass plant response rating: Preemergence
How it was run: as §1

corn (Zea mays) = experiment: Test B pre-/postemergence; parameters: key: 0 is no effect; 10 is complete control; conditions: for Corn plant response rating: Preemergence
How it was run: as §1

[5] = system: sugar beet (Beta vulgaris); experiment: Test B pre-/postemergence; parameters: key: 0 is no effect; 10 is complete control
How it was run: as §1

[6] = system: wheat (Triticum aestivum); experiment: Test B pre-/postemergence; parameters: key: 0 is no effect; 10 is complete control
How it was run: as §1

[7] = system: pigweed (Amaranthus retroflexus); experiment: Test B pre-/postemergence; parameters: key: 0 is no effect; 10 is complete control
How it was run: as §1

[8] = system: crabgrass (Digitaria sanguinalis); experiment: Test B pre-/postemergence; parameters: key: 0 is no effect; 10 is complete control; conditions: for Crabgrass plant response rating: Preemergence
How it was run: as §1

soybean (Glycine max) = experiment: Test B pre-/postemergence; parameters: key: 0 is no effect; 10 is complete control
How it was run: as §1

[9] = system: cocklebur (Xanthium strumarium); experiment: Test B pre-/postemergence; parameters: key: 0 is no effect; 10 is complete control; conditions: for Cocklebur plant response rating: Preemergence
How it was run: as §1

[10] = system: bedstraw (Galium aparine); experiment: Test B pre-/postemergence; parameters: key: 0 is no effect; 10 is complete control; conditions: Postemergence
How it was run: as §1

[11] = system: purple nutsedge (Cyperus rotundus); experiment: Test B pre-/postemergence; parameters: key: 0 is no effect; 10 is complete control
How it was run: as §1

[12] = system: blackgrass (Alopecurus myosuroides); experiment: Test B pre-/postemergence; parameters: key: 0 is no effect; 10 is complete control; conditions: for Blackgrass plant response rating: Preemergence
How it was run: as §1

rice (Oryza sativa) = experiment: Test B flood test
How it was run: (§2)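 Plants were grown to the 2-leaf stage before treatment with test chemical, then held in a greenhouse for twelve to sixteen days. Injury was visually rated against untreated controls on a 0–10 scale, where 0 is no effect and 10 is complete control.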

[13] = system: smallflower flatsedge (Cyperus difformis); experiment: Test B flood test
How it was run: as §2

[14] = system: duck salad (Heteranthera limosa); experiment: Test B flood test
How it was run: as §2

[15] = system: bamyardgrass (Echinochloa crus-galli); experiment: Test B flood test
How it was run: as §2

[16] = Rate 250 g/ha, Postemergence (so in the source)
[17] = Rate 62 g/ha, Postemergence (flood test)
[18] = Rate 125 g/ha, Postemergence section (flood test species)
[19] = Rate 250 g/ha, Postemergence (flood test species)
[20] = Rate 125 g/ha, Postemergence, flood test

## Cc1cnc(-c2ccc(F)c(Cl)c2)nc1Cc1cccc(C#N)c1 [Compound 40]
[1]; Rate 62 g/ha, Postemergence
  Plant response rating, Velvetleaf: 1
[1]; Rate 62 g/ha, Preemergence
  Velvetleaf plant response rating: 0
[1]; Rate 125 g/ha, Postemergence
  Velvetleaf plant response rating: 2
[1]; Rate 125 g/ha, Preemergence
  Plant response rating, Velvetleaf: 0
[1]; Rate 250 g/ha, Postemergence
  Plant response rating, Velvetleaf: 2
[1]; [16]
  Plant response rating, Velvetleaf: 1
Wild oat (Avena fatua); Rate 62 g/ha, Postemergence
  Wild oats plant response rating: 0
Wild oat (Avena fatua); Rate 62 g/ha, Preemergence
  Wild oats plant response rating: 0
Wild oat (Avena fatua); Rate 125 g/ha, Postemergence
  Wild oats plant response rating: 0
Wild oat (Avena fatua); Rate 125 g/ha, Preemergence
  Plant response rating, Wild oats: 0
Wild oat (Avena fatua); Rate 250 g/ha, Postemergence
  Plant response rating, Wild oats: 1
Wild oat (Avena fatua); [16]
  Plant response rating, Wild oats: 1
Rape (Brassica napus); Rate 62 g/ha, Postemergence
  Plant response rating, Rape: 6
Rape (Brassica napus); Rate 62 g/ha, Preemergence
  Rape plant response rating: 0
Rape (Brassica napus); Rate 125 g/ha, Postemergence
  Rape plant response rating: 6
Rape (Brassica napus); Rate 125 g/ha, Preemergence
  Rape plant response rating: 1
Rape (Brassica napus); Rate 250 g/ha, Postemergence
  Plant response rating, Rape: 8
Rape (Brassica napus); [16]
  Plant response rating, Rape: 2
[2]; Rate 62 g/ha, Postemergence
  Plant response rating, Giant foxtail: 0
[2]; Rate 62 g/ha, Preemergence
  Giant foxtail plant response rating: 0
[2]; Rate 125 g/ha, Postemergence
  Giant foxtail plant response rating: 0
[2]; Rate 125 g/ha, Preemergence
  Giant foxtail plant response rating: 1
[2]; Rate 250 g/ha, Postemergence
  Plant response rating, Giant foxtail: 2
[2]; [16]
  Plant response rating, Giant foxtail: 3
[3]; Rate 62 g/ha, Postemergence
  Plant response rating, Morningglory: 2
[3]; Rate 62 g/ha, Preemergence
  Morningglory plant response rating: 0
[3]; Rate 125 g/ha, Postemergence
  Morningglory plant response rating: 2
[3]; Rate 125 g/ha, Preemergence
  Morningglory plant response rating: 1
[3]; Rate 250 g/ha, Postemergence
  Plant response rating, Morningglory: 5
[3]; [16]
  Plant response rating, Morningglory: 2
[4]; Rate 62 g/ha, Postemergence
  Plant response rating, B. signalgrass: 1
[4]; Rate 62 g/ha
  B. signalgrass plant response rating: 0
[4]; Rate 125 g/ha, Postemergence
  Plant response rating, B. signalgrass: 1
[4]; Rate 125 g/ha
  B. signalgrass plant response rating: 0
[4]; Rate 250 g/ha, Postemergence
  Plant response rating, B. signalgrass: 1
[4]; Rate 250 g/ha, Postemergence as printed in head r139 (second section for compounds 26-50)
  Plant response rating, B. signalgrass: 1
Corn (Zea mays); Rate 62 g/ha, Postemergence
  Plant response rating, Corn: 1
Corn (Zea mays); Rate 62 g/ha
  Corn plant response rating: 0
Corn (Zea mays); Rate 125 g/ha, Postemergence
  Plant response rating, Corn: 1
Corn (Zea mays); Rate 125 g/ha
  Corn plant response rating: 0
Corn (Zea mays); Rate 250 g/ha, Postemergence
  Plant response rating, Corn: 1
Corn (Zea mays); [16]
  Plant response rating, Corn: 0
[5]; Rate 62 g/ha, Postemergence
  Plant response rating, Sugarbeets: 10
[5]; Rate 62 g/ha, Preemergence
  Sugarbeets plant response rating: 2
[5]; Rate 125 g/ha, Postemergence
  Sugarbeets plant response rating: 10
[5]; Rate 125 g/ha, Preemergence
  Plant response rating, Sugarbeets: 6
[5]; Rate 250 g/ha, Postemergence
  Plant response rating, Sugarbeets: 10
[5]; [16]
  Plant response rating, Sugarbeets: 6
[6]; Rate 62 g/ha, Postemergence
  Wheat plant response rating: 1
[6]; Rate 62 g/ha, Preemergence
  Wheat plant response rating: 0
[6]; Rate 125 g/ha, Postemergence
  Wheat plant response rating: 1
[6]; Rate 125 g/ha, Preemergence
  Plant response rating, Wheat: 0
[6]; Rate 250 g/ha, Postemergence
  Plant response rating, Wheat: 2
[6]; [16]
  Plant response rating, Wheat: 0
[7]; Rate 62 g/ha, Postemergence
  Plant response rating, Redroot pigweed: 2
[7]; Rate 62 g/ha, Preemergence
  Redroot pigweed plant response rating: 0
[7]; Rate 125 g/ha, Postemergence
  Redroot pigweed plant response rating: 3
[7]; Rate 125 g/ha, Preemergence
  Redroot pigweed plant response rating: 1
[7]; Rate 250 g/ha, Postemergence
  Plant response rating, Redroot pigweed: 6
[7]; [16]
  Plant response rating, Redroot pigweed: 2
[8]; Rate 62 g/ha, Postemergence
  Plant response rating, Crabgrass: 1
[8]; Rate 62 g/ha
  Crabgrass plant response rating: 0
[8]; Rate 125 g/ha, Postemergence
  Plant response rating, Crabgrass: 1
[8]; Rate 125 g/ha
  Crabgrass plant response rating: 0
[8]; Rate 250 g/ha, Postemergence
  Plant response rating, Crabgrass: 3
[8]; [16]
  Plant response rating, Crabgrass: 0
Soybean (Glycine max); Rate 62 g/ha, Postemergence
  Plant response rating, Soybean: 2
Soybean (Glycine max); Rate 62 g/ha, Preemergence
  Soybean plant response rating: 0
Soybean (Glycine max); Rate 125 g/ha, Postemergence
  Soybean plant response rating: 2
Soybean (Glycine max); Rate 125 g/ha, Preemergence
  Plant response rating, Soybean: 0
Soybean (Glycine max); Rate 250 g/ha, Postemergence
  Plant response rating, Soybean: 2
Soybean (Glycine max); [16]
  Plant response rating, Soybean: 0
[9]; Rate 62 g/ha, Postemergence
  Plant response rating, Cocklebur: 5
[9]; Rate 62 g/ha
  Cocklebur plant response rating: 0
[9]; Rate 125 g/ha, Postemergence
  Plant response rating, Cocklebur: 2
[9]; Rate 125 g/ha
  Cocklebur plant response rating: 0
[9]; Rate 250 g/ha, Postemergence
  Plant response rating, Cocklebur: 5
[9]; [16]
  Plant response rating, Cocklebur: 0
[10]; Rate 62 g/ha
  Plant response rating, Bedstraw: 4
[10]; Rate 125 g/ha
  Plant response rating, Bedstraw: 4
[10]; Rate 250 g/ha
  Plant response rating, Bedstraw: 6
[11]; Rate 62 g/ha, Preemergence
  Nutsedge plant response rating: 0
[11]; [16]
  Plant response rating, Nutsedge: 0
[12]; Rate 62 g/ha, Postemergence
  Plant response rating, Blackgrass: 2
[12]; Rate 62 g/ha
  Blackgrass plant response rating: 0
[12]; Rate 125 g/ha, Postemergence
  Plant response rating, Blackgrass: 2
[12]; Rate 125 g/ha
  Blackgrass plant response rating: 1
[12]; Rate 250 g/ha, Postemergence
  Plant response rating, Blackgrass: 2
[12]; [16]
  Plant response rating, Blackgrass: 2
Rice (Oryza sativa); [17]
  Plant response rating, Rice: 1
Rice (Oryza sativa); [18]
  Rice plant response rating: 1
Rice (Oryza sativa); [19]
  Plant response rating, Rice: 2
[13]; [17]
  Plant response rating, S. Flatsedge: 2
[13]; [18]
  S. Flatsedge plant response rating: 4
[13]; [19]
  Plant response rating, S. Flatsedge: 5
[14]; [17]
  Plant response rating, Ducksalad: 1
[14]; [20]
  Plant response rating, Ducksalad: 5
[14]; [19]
  Plant response rating, Ducksalad: 7
[15]; [17]
  Plant response rating, Barnyardgrass: 2
[15]; [20]
  Plant response rating, Barnyardgrass: 2
[15]; [19]
  Plant response rating, Barnyardgrass: 2
